Measured values reported in PMC6397244, “Peptide Assembly on the Membrane Determines the HIV-1 Inhibitory Activity of Dual-Targeting Fusion Inhibitor Peptides” (Scientific Reports, 2019).
pEC50: −log10 of the molar value. Ends that are not written are not given here.

How the values were obtained:
[1] = 1D 1H NMR in DPC micelles; type: physicochemical; settings: NMR sample
Protocol: Nuclear magnetic resonance (NMR) spectra were recorded at 300 K on a Bruker Avance III console (Bruker Biospin, Germany) combined with a […] Oxford Instruments magnet (^1H 500 MHz), equipped with a 5 mm inverse cryogenically cooled triple-resonance TCI (^1H, ^13C, ^15N, and ^2H lock) cryoprobe with a z-axis magnetic field-gradient capability. For proton spectra acquisition, peptide samples were prepared by dissolving first lyophilized peptide in a small amount of DMSO-d6 and next, dissolution in detergent solution containing perdeuterated DPC-d38 (final molar ratio ~ 1:100, peptide/DPC 0.5:50 mM). […] The diffusion coefficient, D, was determined by fitting diffusion weighted intensities of selected peaks or integrals over a chosen range to the following equation1 I=I0exp{−γ^2g^2δ^2(Δ−δ/3)D}, where γ is the gyromagnetic ratio of proton and g, δ and Δ are the amplitude, duration and separation of the single pair of gradient pulses, respectively. […] The reason for DPC diffusion coefficients being higher than peptides values is likely due to a surplus of free monomeric DPC molecules (below cmc), so the diffusion coefficient measured for DPC has a relevant contribution of […], while the observed peptide resonances (and their diffusion coefficient) mainly correspond to DPC-bound peptide.

[2] = tested on: Q23 (HIV pseudotype, Env pQ23.17); settings: Q23 (R5, subtype A); TZM-bl, peptide 1 h before and during infection, luciferase read-out 48 h after infection; duplicates
Description: (§1) The anti-HIV activities of DT-peptides and E1 were comparatively tested against a set of viral pseudotypes carrying HIV envelopes from HIV subtype A, B, C and A/E (Table 1) in the TZM-bl reporter cell line.
(§2) The preparation of the HIV-1 Env pseudotyped virus stocks in a GCLP- (Good Clinical Laboratory Practice) compliant manner occurred as described previously. This includes the pseudoviruses listed in Table 2 with the Env sequences HXB2, AC10.0.29, Q461.e2, Q23.17, CAP210.2.00.E8 and CM235.c11 as well as the Env deficient backbone plasmid pSG3ΔEnv. Within this study the titration assay to determine the virus dilution at a relative luminescence unit (RLU) of 150,000 was performed according to the method described before[34]–[36] and the luminescence was measured using the Infinite F200 microplate reader.
(§3) Peptides were tested for their antiviral activities against a panel of HIV pseudotypes carrying different HIV envelope proteins (Table 2) in the TZM-bl indicator cell line. Briefly, 10-fold serial dilutions of the compounds (0.001–10 µM) were incubated in duplicates with the cells in 96-well plates. 1 h after incubation, cell culture medium was replaced and cells were infected with the different pseudotypes together with fresh compounds. […] 48 h after infection, cells were washed and luciferase was quantified using the Britelite Plus Luciferase Assay System (PerkinElmer). Luciferase values were normalized to DMSO control. Cell viability was estimated in parallel in non-infected TZM-bl cells with the Cell Titer Glo ATPase kit (Promega). CC50 and EC50 values ± SEM were calculated with GraphPad Prism, using the built-in function log (inhibitor) vs. normalized response.

[3] = tested on: AC10 (HIV pseudotype, Env pAC10.0); settings: AC10 (R5, subtype B); TZM-bl, peptide 1 h before and during infection, luciferase read-out 48 h after infection; duplicates
Description: as §1, §2, §3

[4] = tested on: CAP210 (HIV pseudotype, Env pCAP210.2); settings: CAP210 (R5, subtype C); TZM-bl, peptide 1 h before and during infection, luciferase read-out 48 h after infection; duplicates
Description: as §1, §2, §3

[5] = tested on: Q461 (HIV pseudotype, Env pQ461.e2); settings: Q461 (R5, subtype A); TZM-bl, peptide 1 h before and during infection, luciferase read-out 48 h after infection; duplicates
Description: as §1, §2, §3

[6] = tested on: HXB2 (HIV pseudotype, Env pHXB2); settings: HXB2 (X4, subtype B); TZM-bl, peptide 1 h before and during infection, luciferase read-out 48 h after infection; duplicates
Description: as §1, §2, §3

[7] = tested on: CM235 (HIV pseudotype, Env pCM235/GS); settings: CM235 (R5, subtype A/E); TZM-bl, peptide 1 h before and during infection, luciferase read-out 48 h after infection; duplicates
Description: as §1, §2, §3

[8] = tested on: HIV-1 FP; settings: donor:acceptor 1:1 ratio; cited from earlier work
Description: The energy transfer efficiency between FP and E1 peptide at a donor:acceptor 1:1 ratio, was around 30% while the energy transfer efficiency between FP and DT-P2 was only 5%.

[9] = Trp quenching by brominated phospholipids; type: physicochemical; settings: 2 µM peptide, 200 µM Br-PC vs DOPC vesicles, 5 min, 25 °C, excitation 290 nm; three repeated assays
Protocol: Quenching of Trp by brominated phospholipid was performed using liposomes composed of 1,2-di-(9-10-dibromo) stearoyl-sn-glycero-3-phosphocoline (Br-PC) (Avanti Polar Lipids). As previously reported, this lipid has similar properties as unsaturated phosphatidylcholine chains due to the bulkiness of bromine residues. For this reason, liposomes of 1,2-dioleoyl-sn-glycero-3-phosphocholine (DOPC) were used for comparing the Trp fluorescence of peptides with brominated liposomes. Liposomes were prepared following the same procedure as described above. Comparatively, a concentration of 2 µM of peptides was added to 200 µM of lipid vesicles either BrPC or DOPC. After 5 min of incubation at 25 °C, fluorescence spectra were recorded with an excitation wavelength of 290 nm and emission from 300 to 450 nm. The fractional quenching was calculated as reported in ref. [33] by (F0 − F)/F0, where F0 is the fluorescence intensity at 340 nm for peptides added to DOPC liposomes and F for peptides added to Br-PC liposomes.

[10] = membrane affinity / partition, intrinsic Trp fluorescence on titration with POPC liposomes; type: physicochemical; settings: 5 µM peptide, POPC LUVs 0.05–0.6 mM, 20 °C; for apparent mole fraction partition coefficient KX: intrinsic Trp fluorescence (ex 280 nm), PBS 0.01 M pH 7.4 (method) / HEPES, triplicate
Protocol: Unilamellar vesicles (LUV) composed of the negatively charged phospholipid 1-palmitoyl-2-oleoyl-sn-glycero-3-phospho-(1′-rac-glycerol) (POPG) or zwitteronic phospholipid palmitoyl-2-oleoyl-sn-glycero-3-phosphocholine (POPC) (both from Avanti Polar-Lipids) were prepared as model membranes. Lipids (10 mM) were dissolved in chloroform/methanol (2/1, v/v) solution. The solvent was evaporated under reduced pressure. A buffer solution of PBS 0.01 M pH 7.4 was added to the previously obtained lipid film to prompt the spontaneous formation of multilamellar vesicles that were subjected to a process of 10 freeze and thaw cycles. The liposomes were then subjected to an extrusion process through 100-nm pore-sized polycarbonate filters in a high-pressure extruder.
To carry out membrane partition studies with DT-peptides, emission fluorescence spectra were recorded for DT-peptides in PBS (0.01 M, pH 7.4) at 20 °C using an excitation wavelength of 280 nm. Changes in the tryptophan (Trp) fluorescence spectra were monitored after incubation of 5 µM of each peptide with increasing concentrations of liposomes. The suspensions were continuously stirred and were left to equilibrate for 10 min before recording the spectra. Fluorescence intensities were corrected by subtraction of the vesicle blank. A lipid titration of N-acetyltryptophanamide (NATA) was carried out at the same time. As described in ref. [31], the apparent mole fraction partition coefficients were determined by fitting the binding curves to the equation: F=fboundFmax+(1−fbound)F0 where F is the relative fluorescence intensity, F0 is the fluorescence intensity in the absence of lipid. fbound=KxL/(W+KxL) where Kx is the mole fraction partition coefficient, L is the lipid concentration, and W is the molar concentration of water (55.3 M at 25 °C).

Substance	effect of higher DMSO-d6 (from 3 to 13%) to increase solubility [1]	pEC50 [2]	pEC50 [3]	pEC50 [4]	pEC50 [5]	pEC50 [6]	pEC50 [7]	energy transfer efficiency between FP and peptide [8]	Trp quenching by brominated lipid vesicles / accessibility for the lipids (in words) [9]	Trp fluorescence upon titration with POPC liposomes / membrane partition (in words) ([10]; excitation 280 nm)	apparent mole fraction partition coefficient KX [10]
LCDCPNGPWVWVPAFCQAVGGGGSWILEYLWKVPFDFWRGVI-NH2 (cysteines drawn unpaired) [DT-P1]	no improvement was observed	4.67	4.70	4.89	4.61	5.12	4.72	–	–	–	–
WILEYLWKVPFDFWRGVI-NH2 (C-terminus assumed) [E1]	–	–	–	–	–	–	–	around 30%	highly quenched demonstrating greater peptide accessibility to the hydrophobic inner part of the lipid vesicles	partitioned stronger into lipid vesicles	8.2 × 10^5
WILEYLWKVPFDFWRGVIGGGSLCDCPNGPWVWVPAFCQAVG-NH2 (cysteines drawn unpaired) [DT-P2]	–	4.80	4.85	5.03	4.61	4.97	4.75	–	–	–	2.4 × 10^5
